Entries after “also recorded” stand apart in the source; their conditions may differ.
Experiments:
B103 cells = test: Toxicity to B103 cells; format: cell-based, rat; settings: at the micromole level
[1] = test system: apoE4 enhancement of Aβ production; test: Aβ production assay, B103-APP cells incubated with apoE4; format: cell-based, rat
Protocol: Aβ production assay. Stable neuroblastoma B103 cell lines transfected with a wildtype hAPP cDNA construct (B 103-APP) were selected by growing them in Dulbecco's modified Eagle's medium (DMEM) containing 10% fetal calf serum (FBS) and 400 μg/ml G418. A cell line expressing APP at similar levels in mouse brains has been identified by RNase protection assay (RPA) and was used in the studies described below. To determine Aβ production, B103-APP cells were incubated with serum-free minimal essential medium (MEM) containing N2 supplements with or without apoE isoforms for 24 h at 37° C. After incubation, 50 μl of medium was collected and assayed for Aβ levels with an ELISA method. The cells were lysed, and cellular proteins were determined by the Lowry method. AP production was normalized to cellular protein.
Cell Culture. Rat neuroblastoma B103 cells stably expressing human wildtype APP (hAPP695wt) (Xu et al. ((1999) Proc. Natl. Acad. Sci. USA 96:7547-7552; Esposito, et al. (2004) J. Neurochem. 91:1260-1274) were generated in Dr. Lennart Mucke's laboratory at the Gladstone Institute of Neurological Disease and maintained in Dulbecco's modified Eagle's medium (DMEM) (GIBCO, Grand Island, N.Y.) containing 400 μg/ml G418, 10% fetal bovine serum, and 5% horse serum at 37° C. Twenty-four hours after plating into 48-well plates (1×10^5 cells per well), cells were washed twice with serum-free DMEM and cultured for another 24 h in DMEM containing 1% N-2 supplement (GIBCO) to induce differentiation. The cells were treated with either β-VLDL (25 μg/ml cholesterol), recombinant human apoE isoform-enriched β-VLDL (7.5 μg/ml apoE and 25 μg/ml cholesterol), or recombinant human apoE (7.5 μg/ml apoE) in fresh DMEM containing 1% N-2 supplement for an additional 24 h. In some experiments, RAP (25 nM or 1 μM) was added to the cells 1 h before apoE treatment.
Aβ Assay. Aβ secreted into the medium was detected with a sandwich enzyme-linked immunosorbent assay (ELISA), using mAb 266 as a capturing antibody and 3D6 as a detecting antibody, as described. Johnson-Wood et al. ((1997) Proc. Natl. Acad. Sci. USA 94:1550-1555). Aβ was quantified from a standard curve (Aβ42; Bachem, Torrance, Calif.) and normalized by total cellular protein.

With `O=S(=O)([O-])c1ccc2c(c1)c(Nc1ccc(S(=O)(=O)O)cc1)cc1c2nc2ccccc2[n+]1-c1ccccc1` [GIND-25, azocarmine-G] as the compound, how does the “toxicity to B103 cells” value (B103 cells) read?
Its value is “no significant toxicity”.

What about the “apoE4 enhancement of Aβ production” value ([1]; FIG. 22) of the same compound?
The value was “abolished completely”.

What about the “enhancement of Aβ production by apoE4” value ([1]; compound 5 μM preincubated with apoE 7.5 μg/ml 30 min, then 24 h with cells, FIG. 27D) of the same compound?
Its value is “abolish; also recorded: decreased Aβ production induced by apoE4 to levels similar to those induced by apoE3”.
